Results on four compounds are retold here after article PMC11954145, “Antimicrobial and ADME properties of methoxylated, methylated and nitrated 2-hydroxynaphthalene-1 carboxanilides” (ADMET & DMPK, 2025).

What is called MIC is the smallest concentration in the dilution series that meets the test's criterion for growth inhibition. The CC50 is the concentration giving 50% cytotoxicity. Low readings indicate greater toxicity to the cells, high ones lower toxicity to the cells.

Data set [1] deals with VRE 342B. Briefly: Antibacterial screening, broth microdilution MIC. In kind it is cell-based, vancomycin-resistant E. faecalis. The note with it: Enterococcus, vanA isolate, 24 h at 37 °C, read-out: MIC VRE 342B. Background: Broth dilution looks for growth in wells or tubes with falling amounts of substance.
Data set [2] is described as follows: Lipophilicity determination by RP-HPLC (log k, log D). In kind it is physicochemical. Particulars: for log D6.5: RP-HPLC C18, MeOH 72 % / acetate-buffered saline pH 6.5; for log D7.4: RP-HPLC C18, MeOH 72 % / acetate-buffered saline pH 7.4; for log k (logarithm of the capacity factor): RP-HPLC C18, MeOH 72 % / water 28 %. From the text: An HPLC system Agilent 1200 equipped with a DAD detector (Agilent, Santa Clara, CA, USA) was used. A chromatographic column Symmetry® C18 5 μm, 4.6×250 mm, part No. WAT054275 (Waters Corp., Milford, MA, USA) was used. The HPLC separation process was monitored and evaluated with EZChrom Elite software ver. 3.3.2 (Agilent). Isocratic elution by a mixture of MeOH p.a. (72 %) and H2O-HPLC Mili-Q grade (28 %) as a mobile phase was used for the determination of capacity factor k. Isocratic elution by a mixture of MeOH p.a. (72 %) and acetate-buffered saline (pH 7.4 and pH 6.5) (28 %) as a mobile phase was used for the determination of distribution coefficients expressed as D7.4 and D6.5. The total flow of the column was 1.0 mL min^-1, the injection volume was 20 μL, the column temperature was 40 °C, and the sample temperature was 10 °C. The detection wavelength of 210 nm was chosen. A KI methanolic solution was used to determine the dead times (tD). Retention times (tR) were measured in minutes. The capacity factors k were calculated according to the formula k = (tR–tD)/tD, where tR is the retention time of the solute, and tD is the dead time obtained using an unretained analyte. The distribution coefficients DpH were calculated according to the formula DpH = (tR–tD)/tD. Each experiment was repeated three times.
The capacity factor and distribution coefficients were measured by RP-HPLC on a C18 column with methanol as an organic modifier of the mobile phase. In addition to the experimental lipophilicities, predicted log P values were also calculated using ACD/Percepta, see Table 1. […] The values of σ(Ar) are found in a wide range from 0.01 to 1.36, so the compounds contain substituents with both electron-donating and slightly electron-withdrawing properties.

Data set [3] concerns MRSA SA 3202. Briefly: Antibacterial screening, broth microdilution MIC. In kind it is cell-based, methicillin-resistant S. aureus. Particulars: Staphylococcus aureus, read-out: MIC MRSA SA 3202.
The subject of data set [4] is VRE 368. Briefly: Antibacterial screening, broth microdilution MIC. In kind it is cell-based, vancomycin-resistant E. faecalis. The note with it: Enterococcus, vanA isolate, 24 h at 37 °C, read-out: MIC VRE 368.
Data set [5] concerns E. coli ATCC 25922. Briefly: Antibacterial screening, broth microdilution MIC. The note with it: Escherichia coli, ATCC25922; ATCC 25922, 24 h at 37 °C. In kind it is cell-based.
The subject of data set [6] is Mycobacterium tuberculosis ATCC 25177/H37Ra. Briefly: Antimycobacterial screening, broth dilution MIC (Alamar blue). In kind it is cell-based. The note with it: 336 h, H37Ra, 14 days at 37 °C, Alamar blue, read-out: MIC M. tuberculosis. How it is done: The evaluation of in vitro antimycobacterial activity of the compounds was performed against Mycobacterium tuberculosis ATCC 25177/H37Ra, Mycobacterium kansasii DSM 44162 and Mycobacterium smegmatis ATCC 700084.
The broth dilution micro-method in Middlebrook 7H9 medium (Difco, Lawrence, KS, USA) supplemented with ADC Enrichment (Difco) was used to determine the minimum inhibitory concentration (MIC) as previously described. […] The final concentrations of the evaluated compounds, ranging from 256 to 0.125 μg mL^-1, were obtained by twofold serial dilution of the stock solution in a microtiter plate with a sterile medium. Bacterial inocula were prepared by transferring colonies from culture to sterile water. The plate was inoculated by tested microorganisms. The final concentration of bacterial cells was 1.5×10^6 for M. tuberculosis and 10^5 cells in a microtiter plate for other mycobacteria. Isoniazid and rifampicin (Sigma) were used as reference antimycobacterial drugs. Drug-free controls, sterility controls, and controls consisting of medium and DMSO alone were included. The plates were incubated for a defined time at an appropriate temperature (3 days at 37 °C for M. smegmatis, and 14 days at 37 °C for M. tuberculosis and M. kansasii). […] The MICs against M. tuberculosis were evaluated by Alamar blue (Oxoid). After incubation, 10 % of Alamar blue was added to each well, and the plate was incubated for 24 h. The MIC values were assessed as the lowest concentration of the tested compounds, which prevented changing blue resazurin to pink resorufin. The experiments were repeated three times. The minimum inhibitory concentrations (MICs) were defined as the lowest concentration of the compound at which no visible bacterial growth was observed. The MIC value is routinely and widely used in bacterial assays and is a standard detection limit according to the CLSI [60].

Data set [7] concerns MRSA 63718. Nature of the data set: Antibacterial screening, broth microdilution MIC. In kind it is cell-based, methicillin-resistant S. aureus. The note with it: Staphylococcus aureus, read-out: MIC MRSA 63718.
Data set [8] concerns Mycobacterium smegmatis ATCC 700084. Briefly: Antimycobacterial screening, broth dilution MIC. The note with it: Mycolicibacterium smegmatis, ATCC700084, 72 h; ATCC 700084, 3 days at 37 °C; read-out: MIC M. smegmatis. In kind it is cell-based.
In data set [9] the test system is S. aureus ATCC 29213. Nature of the data set: Antibacterial screening, broth microdilution MIC. In kind it is cell-based. The note with it: Staphylococcus aureus, read-out: MIC S. aureus.
Data set [10] concerns Enterococcus faecalis ATCC 29212. Briefly: Antibacterial screening, broth microdilution MIC. In kind it is cell-based. The note with it: ATCC29212, ATCC 29212, 24 h at 37 °C, read-out: MIC E. faecalis.
In data set [11] the test system is VRE 725B. Briefly: Antibacterial screening, broth microdilution MIC. In kind it is cell-based, vancomycin-resistant E. faecalis. Particulars: Enterococcus, vanA isolate, 24 h at 37 °C, read-out: MIC VRE 725B.
Data set [12] has as its system Mycobacterium kansasii DSM 44162. Nature of the data set: Antimycobacterial screening, broth dilution MIC. In kind it is cell-based. The note with it: DSM44162, 336 h, DSM 44162, 14 days at 37 °C, read-out: MIC M. kansasii.
Data set [13] relates to MRSA SA 630. Nature of the data set: Antibacterial screening, broth microdilution MIC. In kind it is cell-based, methicillin-resistant S. aureus. Particulars: Staphylococcus aureus, read-out: MIC MRSA SA 630.
Data set [14] is described as follows: Cytotoxicity assay (LDH). The note with it: human. How it is done:
Cytotoxicity of the compounds was determined using an LDH assay kit (Roche Diagnostics, Mannheim, Germany) as described previously. Human monocytic leukemia THP-1 cells (European Collection of Cell Cultures, Salisbury, UK) were exposed for 24 h at 37 °C to various compound concentrations ranging from 0.37 to 30 μM in RPMI 1640 medium. For LDH assays, cells were seeded into 96-well plates (5×10^4 cells/well in 100 μL culture medium) in triplicate in serum-free RPMI 1640 medium and measurements were taken 24 h after the treatment with the compounds. The maximum concentration of DMSO (Sigma) in the assays never exceeded 0.1 %. […] The median lethal dose values, LC50, were deduced through the production of a dose-response curve. All data from three independent experiments were evaluated using GraphPad Prism 5.00 software (GraphPadSoftware, San Diego, CA, USA).

[15] abbreviates: clinical isolate, 24 h at 37 °C.
Setting [16] is: ATCC29213, ATCC 29213, 24 h at 37 °C.

≈ marks a conversion by molar mass, not a printed value. Where “and” joins values, the source holds several entries; their conditions need not be identical. Identical values can stand only once. Like-named read-outs stand apart in the source and are kept apart here.

For `Cc1cccc(C)c1NC(=O)c1c(O)ccc2ccccc12` [Compound 12, N-(2,6-Dimethylphenyl)-2-hydroxynaphthalene-1-carboxamide], the minimum inhibitory concentration (MIC) in data set [1] was 879 µM (≈ 256 µg/mL); in data set [3] (24 h) it was 439 µM (≈ 128 µg/mL); in [4] it was 879 µM (≈ 256 µg/mL); in data set [5] it was 879 µM (≈ 256 µg/mL); in data set [6] it was 439 µM (≈ 128 µg/mL); in data set [7] (setting [15]), 879 µM (≈ 256 µg/mL). In addition, the minimal inhibitory concentration (MIC) worked out at 879 µM (≈ 256 µg/mL) in data set [8]; 439 µM (≈ 128 µg/mL) in [9] (ATCC29213, 24 h); 879 µM (≈ 256 µg/mL) in data set [10]; 879 µM (≈ 256 µg/mL) in data set [11]; 879 µM (≈ 256 µg/mL) in data set [12]; 439 µM (≈ 128 µg/mL) in data set [13] (24 h). The “log D6.5” value in [2] is on record as 0.0838. Also, in data set [2], the “log D7.4” value is recorded as 0.0923. The “log k (logarithm of the capacity factor)” value in [2] was 0.0785.
In data set [14], `CC[C@@]1(O)C(=O)OCc2c1cc1n(c2=O)Cc2cc3ccccc3nc2-1` [CMP, camptothecin, reference compound] returned a CC50 at 24 h of 0.16 ± 0.07 µM.
Consider `COc1ccc(NC(=O)c2c(O)ccc3ccccc23)cc1C(F)(F)F` [Compound 21, 2-Hydroxy-N-[4-methoxy-3-(trifluoromethyl)phenyl]naphthalene-1-carboxamide], for which the minimum inhibitory concentration (MIC) in data set [1] amounted to 177 µM (≈ 64 µg/mL); in data set [3] (setting [15]), 88.6 µM (≈ 32 µg/mL); in data set [4], 88.6 µM (≈ 32 µg/mL); in data set [5], 709 µM (≈ 256 µg/mL); in data set [6] it was 354 µM (≈ 128 µg/mL); in data set [7] (setting [15]), 177 µM (≈ 64 µg/mL). For the same compound, the minimal inhibitory concentration (MIC) in data set [8] came to 177 µM (≈ 64 µg/mL); in data set [9] (setting [16]) it was 88.6 µM (≈ 32 µg/mL); in data set [10] it was 88.6 µM (≈ 32 µg/mL); in data set [11], 88.6 µM (≈ 32 µg/mL); in [12] it was 709 µM (≈ 256 µg/mL); in data set [13] (setting [15]) it was 88.6 µM (≈ 32 µg/mL). Besides, in data set [2], the “log D6.5” value amounted to 0.1704. The “log D7.4” value in data set [2] is 0.1745. Besides, in [2], the “log k (logarithm of the capacity factor)” value is 0.16 and 0.1635.
Turning to `Cc1ccc(NC(=O)c2c(O)ccc3ccccc23)cc1C(F)(F)F` [Compound 23, 2-Hydroxy-N-[4-methyl-3-(trifluoromethyl)phenyl]naphthalene-1-carboxamide], the MIC was 741 µM (≈ 256 µg/mL) in data set [1]; 46.3 µM (≈ 16 µg/mL) in data set [3] (setting [15]); 741 µM (≈ 256 µg/mL) in data set [4]; 741 µM (≈ 256 µg/mL) in [5]; 371 µM (≈ 128 µg/mL) in data set [6]; 371 µM (≈ 128 µg/mL) in [7] (24 h). Also, the minimum inhibitory concentration (MIC) was 46.3 µM (≈ 16 µg/mL) in data set [8]; 23.2 µM (≈ 8.01 µg/mL) in [9] (setting [16]); 741 µM (≈ 256 µg/mL) in [10]; 741 µM (≈ 256 µg/mL) in data set [11]; 741 µM (≈ 256 µg/mL) in [12]; 92.7 µM (≈ 32 µg/mL) in data set [13] (setting [15]). In data set [2], the “log D6.5” value came to 0.4621. In data set [2], the “log D7.4” value worked out at 0.4636. Moreover, the “log k (logarithm of the capacity factor)” value in data set [2] was 0.46 and 0.4605.
